One assay has as its target T1, Human M4 (Homo sapiens, UniProt P08173).
T1 construct: expressed in transfected cells
T1 sequence (P08173 1-479): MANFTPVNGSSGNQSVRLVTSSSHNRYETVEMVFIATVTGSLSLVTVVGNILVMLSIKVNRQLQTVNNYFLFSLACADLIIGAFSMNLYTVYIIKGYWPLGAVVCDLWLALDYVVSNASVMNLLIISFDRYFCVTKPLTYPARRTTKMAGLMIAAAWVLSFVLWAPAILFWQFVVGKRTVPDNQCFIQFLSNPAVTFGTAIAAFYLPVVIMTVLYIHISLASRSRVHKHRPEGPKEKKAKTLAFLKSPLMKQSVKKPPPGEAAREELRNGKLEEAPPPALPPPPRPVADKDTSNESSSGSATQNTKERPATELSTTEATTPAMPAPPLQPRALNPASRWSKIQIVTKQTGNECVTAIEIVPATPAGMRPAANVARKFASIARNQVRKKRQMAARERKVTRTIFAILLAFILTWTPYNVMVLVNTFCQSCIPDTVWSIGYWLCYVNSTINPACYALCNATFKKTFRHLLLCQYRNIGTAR
Nature of the assay: mAChR M4 cell-based functional assay (calcium flux, potentiation of EC20 acetylcholine response). Particulars: for Emax at 30 µM: % ACh maximum at 30 μM, human M4; for EC50: CHO-K1 cells with human M4 and Gqi5, increase in EC20 acetylcholine response. For orientation: Calcium assays in cells follow changes in intracellular calcium, usually with a dye or a luminescent sensor.

The next assay concerns male Sprague-Dawley rats. The assay can be described thus: Reversal of amphetamine-induced hyperlocomotion in rats. It counts as in vivo, rat. The note with it: 10 mg/kg p.o. The procedure: Drugs: d-Amphetamine hemisulfate was obtained from Sigma (St. Louis, Mo.). Salt-correction was used to determine the correct amount of the d-amphetamine hemisulfate form in milligrams to add to sterile water in order to yield a 0.75 mg/mL solution, which would be dosed at 1 mL/kg body weight of each animal. […] The solutions were formulated so that animals were injected with a volume equal to 10 mL/kg body weight for all compounds. The appropriate amount according to the dosage was mixed in 10% Tween 80 (Sigma) 90% sterile water. The mixtures were then vortexed and stored in a 39° C. sonication bath for 1 hour, until in a microsuspension (except for the highest dose, which was a suspension).
Animals: Male Sprague-Dawley rats weighing 239-300 grams and averaging 265 g (Harlan, Inc., Indianapolis, Ind.) were used. They were housed in the animal care facility certified by the American Association for the Accreditation of Laboratory Animal Care (AALAC) under a 12-hour light/dark cycle (lights on: 6 a.m.; lights off: 6 p.m.) and had free access to food and water. The animals used in this experiment were food-deprived the evening before experimentation for oral dosing of compound/vehicle. The experimental protocols performed during the light cycle were approved by the Institutional Animals Care and Use Committee of Vanderbilt University and conformed to the guidelines established by the National Research Council Guide for the Care and Use of Laboratory Animals.
Amphetamine-induced Hyperlocomotion: Male Harlan Sprague Dawley rats were habituated in Smart Open Field locomotor activity test chambers (Hamilton-Kinder, San Diego, Calif.) with 16×16 photo beams to automatically record locomotor activity. […] They were monitored for an additional 30 minutes and then injected subcutaneously with vehicle or […] amphetamine. Animals were then monitored for an additional 60 minutes, for a total of 120 minutes. Data were expressed as changes in ambulation defined as total number of beam breaks per 5 minute interval. […]
Data Analysis: Behavioral data were analyzed using a two-way ANOVA with main effects of treatment and time. […] In addition, the total number of beam breaks from the amphetamine administration (65 min) to the end of the study (120 min) was calculated and graphed. Percent Reversal was calculated as follows using Microsoft Excel: In each animal, total ambulation from t=65 to t=120 was summed. The mean of each sum was calculated in the VAMP group. Then, for each animal, Percent Reversal was calculated with the following formula: Percent Reversal=100−{[(total ambulation in each animal from t=65 to t=120)/(mean of each sum from t=65 to t=120 in VAMP group)]*100}. The mean Percent Reversal, as well as the standard error, was calculated for each dose group using GraphPad Prism V5.04.

Description for Human M4: Human M4 cDNA, along with the chimeric G protein Gqi5, were transfected into Chinese hamster ovary (CHO-K1) cells purchased from the American Type Culture Collection using commercially available Lipofectamine 2000 transfection reagent (Dalby, B. et al., Methods (2004) 33(2), 95-103). hM4-Gqi5 cells were grown in Ham's F-12 medium containing 10% heat-inactivated fetal bovine serum (FBS), 20 mM HEPES, 50 μg/mL G418 sulfate (CAS #108321-42-2), and 500 μg/mL Hygromycin B. rM4-Gqi5 cells were grown in DMEM containing 10% heat-inactivated FBS, 20 mM HEPES, 400 μg/mL G418 sulfate, and 500 μg/mL Hygromycin B.
For high throughput measurement of agonist-evoked increases in intracellular calcium, CHO-K1 cells stably expressing muscarinic receptors were plated in growth medium lacking G418 sulfate and hygromycin at 15,000 cells/20 μL/well in Greiner 384-well black-walled, tissue culture (TC)-treated, clear-bottom plates (VWR). Cells were incubated overnight at 37° C. and 5% CO2. The next day, cells were washed using an ELX 405 (BioTek) with assay buffer; the final volume was then aspirated to 20 μL. […] Dye was removed by washing with the ELX 405 and the final volume was aspirated to 20 μL. Compound master plates were formatted in an 11 point concentration-response curve (CRC) format (1:3 dilutions) in 100% DMSO with a starting concentration of 10 mM using a BRAVO liquid handler (Agilent). Test compound CRCs were then transferred to daughter plates (240 nL) using the Echo acoustic plate reformatter (Labcyte, Sunnyvale, Calif.) and then diluted into assay buffer (40 μL) to a 2× stock using a Thermo Fisher Combi (Thermo Fisher Scientific, Waltham, Mass.).
Calcium flux was measured using the Functional Drug Screening System (FDSS) 6000 or 7000 (Hamamatsu Corporation, Tokyo, Japan) as an increase in the fluorescent static ratio. Compounds were applied to cells (20 μL, 2×) using the automated system of the FDSS at 2-4 seconds into the protocol and the data were collected at 1 Hz. At 144 seconds, 10 μL of an EC20 concentration of the muscarinic receptor agonist acetylcholine was added (5×), followed by the addition of 12 μL of an EC80 concentration of acetylcholine at the 230 second time point (5×). Agonist activity was analyzed as a concentration-dependent increase in calcium mobilization upon compound addition. Positive allosteric modulator activity was analyzed as a concentration-dependent increase in the EC20 acetylcholine response. […] Antagonist activity was analyzed as a concentration-dependent decrease in the EC80 acetylcholine response. Concentration-response curves were generated using a four-parameter logistical equation in XLFit curve fitting software (IDBS, Bridgewater, N.J.) for Excel (Microsoft, Redmond, Wash.) or Prism (GraphPad Software, Inc., San Diego, Calif.).

Take `CCc1nc(C)c2c(n1)sc1c(NCc3ccc(OC)c(F)c3)nccc12` [Compound 33, 2-ethyl-N-[(3-fluoro-4-methoxy-phenyl)methyl]-4-methyl-pyrido[4,5]thieno[1,2-b]pyrimidin-8-amine]: on Human M4, the Emax at 30 µM came to 87.4% and the EC50 amounted to 1330 nM.

Turning to `CCc1nc(C)c2c(n1)sc1c(NCc3ccc(C(C)(C)O)cc3)nccc12` [Compound 34, 2-[4-[[(2-ethyl-4-methyl-pyrido[4,5]thieno[1,2-b]pyrimidin-8-yl)amino]methyl]phenyl]propan-2-ol], on Human M4, the Emax at 30 µM is 88.1% and the EC50 came out at 601 nM. On to `CCc1nc(C)c2c(n1)sc1c(N3CCC(F)(F)C3)nccc12` [Compound 35, 8-(3,3-difluoropyrrolidin-1-yl)-2-ethyl-4-methyl-pyrido[4,5]thieno[1,2-b]pyrimidine], for which, on Human M4, the Emax at 30 µM is 96.9% and the EC50 came out at 263 nM. For `Cc1nc(CC(C)C)nc2sc3c(NCc4ccc(C(C)(C)O)cc4)nccc3c12` [Compound 36, 2-[4-[[(2-isobutyl-4-methyl-pyrido[4,5]thieno[1,2-b]pyrimidin-8-yl)amino]methyl]phenyl]propan-2-ol] the same measures were 66.4% and greater than 10000 nM. Taken in the same sequence, the figures for `Cc1nc(C2CC2)nc2sc3c(N4CCCCC4)nccc3c12` [Compound 37, 2-cyclopropyl-4-methyl-8-(1-piperidyl)pyrido[4,5]thieno[1,2-d]pyrimidine] were 55% and greater than 10000 nM.

On to `Cc1nc(C2CC2)nc2sc3c(N4CCCC4)nccc3c12` [Compound 38, 2-cyclopropyl-4-methyl-8-pyrrolidin-1-yl-pyrido[4,5]thieno[1,2-d]pyrimidine], for which, on Human M4, the maximal effect (Emax) at 30 µM was found to be 65% and the EC50 was 1010 nM.

Take `Cc1nc(C2CC2)nc2sc3c(NC4CCCC4)nccc3c12` [Compound 39, N-cyclopentyl-2-cyclopropyl-4-methyl-pyrido[4,5]thieno[1,2-d]pyrimidin-8-amine]: on Human M4, the maximal effect (Emax) at 30 µM was determined as 69% and the concentration for a half-maximal effect (EC50) was 1860 nM. For `Cc1nc(C2CC2)nc2sc3c(N4CCC(F)CC4)nccc3c12` [Compound 40, 2-cyclopropyl-8-(4-fluoro-1-piperidyl)-4-methyl-pyrido[4,5]thieno[1,2-d]pyrimidine] the same measures were 73% and 1470 nM. Taken in the same sequence, the figures for `Cc1nc(C)c2c(n1)sc1c(NCc3ccc(C(C)(C)O)cc3)ncc(Cl)c12` [Compound 41, 2-(4-(((5-chloro-2,4-dimethylpyrido[4′,3′:4,5]thieno[2,3-d]pyrimidin-8-yl)amino)methyl)phenyl)propan-2-ol] were 91.9% and 3300 nM.

With `Cc1nc(C)c2c(n1)sc1c(NCc3ccc(F)c(F)c3)ncc(Cl)c12` [Compound 43, 5-chloro-N-[(3,4-difluorophenyl)methyl]-2,4-dimethyl-pyrido[4,5]thieno[1,2-b]pyrimidin-8-amine], on Human M4, the Emax at 30 µM is 50.3% and the concentration giving a half-maximal response (EC50) worked out at 4350 nM.

`Cc1nc(C)c2c(n1)sc1c(NC3CCC3)ncc(Cl)c12` [Compound 44, 5-chloro-N-cyclobutyl-2,4-dimethyl-pyrido[4,5]thieno[1,2-b]pyrimidin-8-amine]: on Human M4, the maximal response (Emax) at 30 µM worked out at 60.1% and the concentration giving a half-maximal response (EC50) amounted to 997 nM.

With `Cc1nc(C)c2c(n1)sc1c(NCc3ccc(C(C)(C)O)cc3)ncc(C#N)c12` [Compound 46, 8-((4-(2-hydroxypropan-2-yl)benzyl)amino)-2,4-dimethylpyrido[4′,3′:4,5]thieno[2,3-d]pyrimidine-5-carbonitrile], at Human M4, the maximum response (Emax) at 30 µM was 66.7% and the EC50 stood at 734 nM.

On to `Cc1nnc2sc(C(=O)NCc3ccc(S(=O)(=O)C(F)(F)F)cc3)c(N)c2c1C` [VU0467154-9A, 5-amino-3,4-dimethyl-N-(4-((trifluoromethyl)sulfonyl)benzyl)thieno[2,3-c]pyridazine-6-carboxamide, reference compound], for which the “percent reversal of amphetamine-induced hyperlocomotion” value in the assay with male Sprague-Dawley rats was 55.0%.

Usually Emax stands for the greatest response seen or fitted, relative to the assay's reference. As usually defined, the EC50 is the concentration that produces a half-maximal response.

Values taken from patent US10736898B2, “Positive allosteric modulators of the muscarinic acetylcholine receptor M4” (Vanderbilt University, priority 2017, dated 2020).
